Test results as given in patent publication US6958236B2, “Control of gene expression in plants” (priority 2000, dated 2005).
“And” between values parts separate entries of the source, which are not always exact repeats. Equal values may be shown once.

Legend:
[1] = tested on: GAL4×10-Luciferase vector pCGS206; test: Tobacco BY2 suspension cells bombarded with receptor vector and GAL4x10-Luciferase vector, GUS-normalized luciferase; format: cell-based, Nicotiana tobaccum L. cv. Bright Yellow 2; conditions: absence of the EcR receptor
Method: The GAL4-MV expression vector pCGS432 and the GAL4×10-Luciferase vector pCGS206 are simultaneously delivered into BY2 suspension cells (Nicotania tobacum L. cv. Bright Yellow 2) by high velocity microprojectile bombardment. A β-glucuronidase (GUS) vector is included as an internal control for transfection efficiency between samples. Transfected cells are incubated overnight in the presence and absence of the appropriate chemical ligand (tebufenozide (Teb), RH5889) in BY2 liquid culture media. After incubation, the cells are harvested and lysed by mechanical disruption. Cellular debris is removed by centrifugation at 20,800 g at 4° C. for 10 minutes. Cell lysates are assayed for luciferase expression levels using the Promega Luciferase Kit (Promega cat #E1500) using a Turner Designs TD 20/20 luminometer. GUS expression levels are determined using the GUS-Light kit (Tropix). […]
The GAL4-Manduca EcR-C1 expression vectors (pCGS441, pCGS442, and pCGS443) and the GAL4×10-Luciferase vector pCGS206 (Example 10) are simultaneously delivered into BY2 suspension cells (Nicotiana tobaccum L. cv. Bright Yellow 2) by high velocity microprojectile bombardment. […] Cell lysates are assayed for luciferase expression levels using the Promega Luciferase Kit (cat #E1500) using a Turner Designs TD 20/20 luminometer. β-glucuronidase expression levels are determined using the GUS-Light kit (Tropix). […]

[2] = tested on: Transgenic plants harboring DNA from the plasmids pCGS202 and pCGS601; test: Chemical induction of transgenic maize plants, photon emission of leaves after luciferin spray; format: in vivo
Method: This mixture is applied directly to one leaf of a plant while a control formulation mixture containing ethanol instead of tebufenozide is applied to another leaf. Treatments are left on the leaves between 24-48 hours. Plants are then treated by spraying the leaves with a mixture containing 7.5 mM luciferin and 1% surfactant and incubating for 5 minutes. Either whole plants or tissues are placed into a dark box and photon emission is monitored using a digital camera and software that counts the accumulated photons that are emitted. Both the image of the tissue and the total photon count is recorded.
Plants at V5 stage are treated as above. The plants treated with tebufenozide emit substantial amounts of light compared with those treated with ethanol only. The table below contains actual counts of leaf samples from maize plants transformed with pCGS601 and pCGS202.
Late stage post pollinated maize plants are also treated as above. Leaves are analyzed as above and the total photon counts are recorded in the table below.

[3] = tested on: Transgenic maize plants containing pCGS601 and pCGS202; test: Chemical induction of transgenic maize plants, luciferase activity of leaf extract; format: in vivo
Method: A formulation mixture containing 10% of a 2.0 mM tebufenozide solution in ethanol and 1% surfactant is applied directly to the leaves of the transgenic maize plants. The solution is left on the leaves between 18 and 40 hours. Leaves are then frozen in liquid nitrogen and ground to a powder. Subsequently, leaves are homogenized in cell culture lysis reagent (CCLR; 25 mM Tris-phosphate pH 7.8, 2 mM DTT, 2 mM 1,2-diaminoclyclohexane-N,N,N′,N′-tetraacetic acid, 10% glycerol, and 1% triton X-100). After spinning for 7 minutes at 14,000 g to pellet the cell debris, 20 μl of the supernatant is assayed for luciferase activity by the standard method (as described in the preceding examples).
Six plants are treated with chemistry: three with ethanol as control and three with tebufenozide. After 40 hours, plants are assayed for luciferase activity.
To determine fold induction with tebufenozide, leaves of individual plants are compared for activity. Using the same plant, one leaf is treated with ethanol and another with tebufenozide. The plants are incubated for 18 hours and assayed for luciferase activity as described above.

pCGS154 reporter = test: Transient transfection of S2 Drosophila cells with luciferase reporter and EcR receptor plasmids; format: cell-based; conditions: for Fold Activation With Chemistry: Example 9, 0.2 μM tebufenozide
Method: An in vivo cell based assay is designed to measure transcriptional activation by the receptors of a reporter plasmid. S2 Drosophila cells (ATCC CRL-1963) are transiently transfected with luciferase reporter and receptor expression plasmids using the calcium phosphate precipitation procedure (Di Nocera and David (1983) PNAS 80, 7095-7098). S2 cells are plated in 96 well format at a density of 2×10^5 in 166.6 μl of Schneider's Drosophila media supplemented with antibiotics and 10% heat inactivated fetal bovine serum (GIBO-BRL). The following day, 33.4 μl of a calcium phosphate precipitate containing 3-6 ng of pCGS154 reporter plasmid, 3-6 ng of EcR receptor plasmid along with salmon sperm DNA to a total of 400 ng DNA per well is added. Chemical ligands are added 16-24 hours after DNA addition to the cells. Cells are then harvested and extracted 24 hours after chemistry addition following the procedures for the luciferase assay by centrifuging and resuspending the cell pellets in 100 μl of cell culture lysis reagent (Promega). Luciferase activity is quantitated using chemiluminescence (Promega) using an analytical luminescence model 2001 luminometer.
S2 cells contain Drosophila EcR and USP. The endogenous USP can be used as the heterodimerization partner for EcR or exogenous USP expression plasmid can be added to the assay.
To compare the activities of Manduca and Drosophila EcR, S2 cells are transiently transfected using the above procedure with the reporter plasmid pCGS 154 and either full-length Drosophila EcR, DDV, full-length Manduca EcR, or MMV. Tebufenozide at 0.2 µM and 2 μM is used as the chemical ligand. Luciferase assays are performed as described above. All of the results are normalized as a ratio of activity to the light unit value for the pCGS154 reporter without chemistry.
The activities of the EcR-VP16 chimeras are compared by transiently transfecting S2 cells as described in Example 3. Tebufenozide is added to the cells at 0.2 μM concentration. Results are expressed as fold activation, a ratio of the activity of the constructs with chemistry added as compared to activity of the constructs without chemistry. All results are normalized to the luciferase activity of the pCGS154 reporter without receptor addition.
(§1) The activities of the EcR-VP16 chimeras are compared by transiently transfecting S2 cells as in Example 3. Tebufenozide is added to the cells at 0.2 μM concentration. Results are expressed as fold activation of constructs with chemistry as compared to without chemistry. All results are normalized to the luciferase activity of the pCGS154 reporter without receptor.
as §1, with “chemistry addition.” for “chemistry.”

CCc1ccc(C(=O)NN(C(=O)c2cc(C)cc(C)c2)C(C)(C)C)cc1 [tebufenozide]
activation of the luciferase reporter without receptor [1]: does not activate the reporter in the absence of the EcR receptor
Fold Induction ([2]; in vivo): 116 Fold
Total Photons Counted ([2]; leaf, late stage post pollinated maize plants): 110,766
Fold Induction ([2]; leaf, late stage post pollinated maize plants, tebufenozide vs ethanol): 30 Fold
Total Photons Counted ([2]; leaf, plants at V5 stage, 2.0 mM RH5992 in 1% surfactant, 24-48 hours): 187,784
Activity (luciferase) ([3]; leaves treated with 10% of 2.0 mM tebufenozide solution, 1% surfactant, 40 hours, individual plants 4-6): 2729 and 745.3 and 2373
fold induction after treatment with tebufenozide ([3]; maize, in vivo, 18 h, 0.2 mM): 10-40 fold
induction above the ethanol controls ([3]; transgenic maize plants, 40 hours): significant induction

B1: MCV: EcR chimera: Manduca sexta C+D domains, Chironomus tentans E domain, VP16; SEQ ID NO:91-92 (protein)
chain: MGREELSPASSINGCSTDGEPRRQKKGPAPRQQEELCLVCGDRASGYHYNALTCEGCKGFFRRSVTKNAVYICKFGHACEMDMYMRRKCQECRLKKCLAVGMRPECVVPESTCKNKRREKEAQREKDKLPVSTTTVDDHMPAIMQCDPPPPEAARIHEVVPRFLTEKLMEQNRLKNVTPLSANQKSLIARLVWYQDGYEQPSEEDLKRITTELEEEEDQEHEANFRYITEVTILTVQLVVEFAKGLPAFIKIPQEDQITLLKACSSEVMMLRMARRYDHDSDSILFANNTAYTKQTYQLAGMEETIDDLLHFCRQMYALSIDNVEYALLTAIVIFSDRPGLEKAEMVDIIQSYYTETLKVYIANRHGGESRCSVQFAKLLGILTELRTMGNKNSEMCFSLKLRNRKLPRFLEEVWDVGDVKLAPPTDVSLGDELHLDGEDVAMAHADALDDFDLDMLGDGDSPGPGFTPHDSAPYGALDMADFEFEQMFTDALGIDEYGG
Fold Activation With Chemistry (pCGS154 reporter): 553.3 fold

B2: CCV: EcR chimera: Chironomus tentans C+D and E domains, VP16; SEQ ID NO:87-88 (protein)
chain: MKLDDGNMSVHMGDGLDGKKSSSKKGPVPRQQEELCLVCGDRASGYHYNALTCEGCKGFFRRSVTKNAVYCCKFGHECEMDMYMKRKCQECRLKKCLAVGMRPECVVPENQCAIKRKEKKAQKEKDKVPGIVGSNTSSSSLLNQSLNNGSLKNLEISYREELLEQLMKCDPPPHPMQQLLPEKLLMENRAKGTPQLTANQVAVIYKLIWYQDGYEQPSEEDLKRITTELEEEEDQEHEANFRYITEVTILTVQLVVEFAKGLPAFIKIPQEDQITLLKACSSEVMMLRMARRYDHDSDSILFANNTAYTKQTYQLAGMEETIDDLLHFCRQMYALSIDNVEYALLTAIVIFSDRPGLEKAEMVDIIQSYYTETLKVYIANRHGGESRCSVQFAKLLGILTELRTMGNKNSEMCFSLKLRNRKLPRFLEEVWDVGDVKLAPPTDVSLGDELHLDGEDVAMAHADALDDFDLDMLGDGDSPGPGFTPHDSAPYGALDMADFEFEQMFTDALGIDEYGG
Fold Activation With Chemistry (pCGS154 reporter): 2.0 fold

B3: EBV (protein)
chain: MGREELSPASSVNGCSTDGEARRQKKGPAPRQQEELCLVCGDRASGYHYNALTCEGCKGFFRRSVTKNAVYICKFGHACEMDMYMRRKCQECRLKKCLAVGMRPECVVPETQCAQKRKEKKAQREKDKLPVSTTTVDDHMPPIMQCDPPPPEAARILECLQHEVVPRFLSEKLMEQNRLKNIPPLTANQQFLIARLVWYQEGYEQPSEEDLKRVTQTWQSDEDEEESDMPFRQITEMTILTVQLIVEFAKGLPGFAKISQSDQITLLKACSSEVMMLRVARRYDAATDSVLFANNQAYSRDNYRKAGMSYVIEDLLHFCRCMYSMMMDNVHYALLTAIVIFSDRPGLEQPLLVEEIQRYYLNTLRVYILNQNSASPRCPVVFAKILGILTELRTLGMQNSNMCISLKLKNRKLPPFLEEIWDVESRGKLAPPTDVSLGDELHLDGEDVAMAHADALDDFDLDMLGDGDSPGPGFTPHDSAPYGALDMADFEFEQMFTDALGIDEYGG
Fold Activation With Chemistry Assay #1 (pCGS154 reporter; Example 8, 0.2 μM tebufenozide): 975.0 fold
Fold Activation With Chemistry Assay #2 (pCGS154 reporter; Example 8, 0.2 μM tebufenozide): 273.7 fold
